Results taken from the Kinase Knowledgebase extract (Sharma et al. 2016).
pIC50: −log10 of the molar value.

The molecules below were run against EGFR (human) (UniProt P00533). Settings: kb.
Chain of EGFR (human) (P00533 whole entry, looked up): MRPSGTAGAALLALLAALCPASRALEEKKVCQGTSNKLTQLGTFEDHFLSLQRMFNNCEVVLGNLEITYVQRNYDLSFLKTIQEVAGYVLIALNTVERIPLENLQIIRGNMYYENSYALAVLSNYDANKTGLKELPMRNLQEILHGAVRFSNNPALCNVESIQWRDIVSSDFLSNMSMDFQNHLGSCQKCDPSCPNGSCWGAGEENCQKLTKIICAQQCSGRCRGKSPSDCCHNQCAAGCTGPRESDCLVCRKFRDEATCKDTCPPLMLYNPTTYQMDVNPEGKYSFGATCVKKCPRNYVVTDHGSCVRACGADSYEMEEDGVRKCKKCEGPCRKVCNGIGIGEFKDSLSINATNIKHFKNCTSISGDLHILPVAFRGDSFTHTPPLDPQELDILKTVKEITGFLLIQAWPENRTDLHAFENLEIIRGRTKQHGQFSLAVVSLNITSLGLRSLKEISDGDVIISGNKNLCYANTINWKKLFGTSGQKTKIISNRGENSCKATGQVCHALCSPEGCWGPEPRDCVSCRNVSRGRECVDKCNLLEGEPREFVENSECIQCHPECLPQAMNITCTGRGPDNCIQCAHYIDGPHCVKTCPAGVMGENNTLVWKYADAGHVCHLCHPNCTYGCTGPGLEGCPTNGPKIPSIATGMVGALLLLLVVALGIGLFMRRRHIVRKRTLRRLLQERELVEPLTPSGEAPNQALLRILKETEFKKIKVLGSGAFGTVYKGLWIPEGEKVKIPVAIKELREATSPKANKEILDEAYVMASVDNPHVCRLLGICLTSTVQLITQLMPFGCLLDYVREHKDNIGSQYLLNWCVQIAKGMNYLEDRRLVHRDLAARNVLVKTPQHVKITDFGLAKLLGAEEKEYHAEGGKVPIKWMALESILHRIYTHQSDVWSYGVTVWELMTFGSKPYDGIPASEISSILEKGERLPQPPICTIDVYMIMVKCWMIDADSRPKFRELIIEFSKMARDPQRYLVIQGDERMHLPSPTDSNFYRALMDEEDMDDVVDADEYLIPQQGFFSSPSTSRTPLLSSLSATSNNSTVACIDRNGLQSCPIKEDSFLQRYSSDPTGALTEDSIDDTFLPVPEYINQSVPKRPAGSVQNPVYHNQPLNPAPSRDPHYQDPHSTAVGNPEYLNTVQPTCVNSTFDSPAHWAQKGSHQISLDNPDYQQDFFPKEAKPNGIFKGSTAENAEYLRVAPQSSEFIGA

pIC50 | SMILES
6.00 to 7.00 | CCN(CC)CC(C)Nc1ncc2ncnc(Nc3ccc(F)c(Cl)c3)c2n1 (stereo not drawn)
6.00 to 7.00 | COC(=O)N1CCC(Nc2ncc3ncnc(Nc4ccc(F)c(Cl)c4)c3n2)CC1

Second part, the molecule before the results:

SMILES | pIC50
Fc1ccc(Nc2ncnc3cnc(N4CCC(C5CCNCC5)CC4)nc23)cc1Cl | 6.00 to 7.00
CC(CN1CCCCC1)Nc1ncc2ncnc(Nc3ccc(F)c(Cl)c3)c2n1 (stereo not drawn) | 6.00 to 7.00
NCC1CCC(CNc2ncc3ncnc(Nc4ccc(F)c(Cl)c4)c3n2)CC1 (stereo not drawn) | 6.00 to 7.00
Nc1c(Cl)cc(Nc2ncnc3cnc(N[C@H]4CC[C@H](C(=O)N5CCCC5)CC4)nc23)cc1Cl | 6.00 to 7.00
Nc1c(Cl)cc(Nc2ncnc3cnc(N[C@H]4CC[C@H](C(=O)O)CC4)nc23)cc1Cl | 6.00 to 7.00
Nc1c(Cl)cc(Nc2ncnc3cnc(N[C@H]4CC[C@H](C(=O)N5CCOCC5)CC4)nc23)cc1Cl | 6.00 to 7.00
Fc1ccc(Nc2ncnc3cnc(NC4CN5CCC4CC5)nc23)cc1Cl (stereo not drawn) | 6.00 to 7.00
NCC1CCN(c2ncc3ncnc(Nc4ccc(F)c(Cl)c4)c3n2)CC1 | 6.00 to 7.00

What follows are molecules tested against EGFR (murine) (UniProt P00533). Settings: f/l herc cells.
Chain of EGFR (murine) (P00533 whole entry, looked up): as above

pIC50 | SMILES
< 8.00 | COC(=O)NC1CCN(c2ncc3ncnc(Nc4ccc(F)c(Cl)c4)c3n2)CC1
< 9.00 | NC1CCCN(c2ncc3ncnc(Nc4ccc(F)c(Cl)c4)c3n2)CC1 (stereo not drawn)
< 9.00 | CCN(CC)CC(C)Nc1ncc2ncnc(Nc3ccc(F)c(Cl)c3)c2n1 (stereo not drawn)
< 7.70 | Fc1ccc(Nc2ncnc3cnc(NCC4CCNCC4)nc23)cc1Cl
< 9.00 | Fc1ccc(Nc2ncnc3cnc(N4CCCCC4)nc23)cc1Cl
< 9.00 | CCN(CCO)c1ncc2ncnc(Nc3ccc(F)c(Cl)c3)c2n1
< 8.00 | CC(C)(N)CNc1ncc2ncnc(Nc3ccc(F)c(Cl)c3)c2n1
< 8.00 | O=C(N[C@H]1CC[C@H](CNc2ncc3ncnc(Nc4ccc(F)c(Cl)c4)c3n2)CC1)OCc1ccccc1
< 8.00 | COC(=O)[C@H]1CC[C@H](Nc2ncc3ncnc(Nc4cc(Cl)c(N)c(Cl)c4)c3n2)CC1
< 9.00 | NC[C@H]1CC[C@H](Nc2ncc3ncnc(Nc4ccc(F)c(Cl)c4)c3n2)CC1
< 8.00 | NCCCNc1ncc2ncnc(Nc3ccc(F)c(Cl)c3)c2n1
< 8.00 | COC(=O)N1CCC(Nc2ncc3ncnc(Nc4ccc(F)c(Cl)c4)c3n2)CC1
< 8.00 | O[C@H]1CC[C@H](Nc2ncc3ncnc(Nc4ccc(-c5ccccc5)cc4)c3n2)CC1
< 9.00 | OCc1cccc(Nc2ncnc3cnc(N[C@H]4CC[C@H](O)CC4)nc23)c1
< 7.70 | CC(C)(C)OC(=O)N1CCC(CNc2ncc3ncnc(Nc4ccc(F)c(Cl)c4)c3n2)CC1
< 8.00 | CC(N)CNc1ncc2ncnc(Nc3ccc(F)c(Cl)c3)c2n1 (stereo not drawn)
< 7.70 | COC(CNc1ncc2ncnc(Nc3ccc(F)c(Cl)c3)c2n1)OC
< 9.00 | NCC1CCCC(CNc2ncc3ncnc(Nc4ccc(F)c(Cl)c4)c3n2)C1 (stereo not drawn)
< 9.00 | Nc1c(Br)cc(Nc2ncnc3cnc(N4CCC(N)CC4)nc23)cc1Br
< 9.00 | N#CN1CCC(Nc2ncc3ncnc(Nc4ccc(F)c(Cl)c4)c3n2)CC1
< 8.00 | COC(=O)[C@H]1CC[C@H](Nc2ncc3ncnc(Nc4ccc(F)c(Cl)c4)c3n2)CC1
< 9.00 | Fc1ccc(Nc2ncnc3cnc(NC4CCCNCC4)nc23)cc1Cl (stereo not drawn)

The next lines start with the molecule.

SMILES | pIC50
CC(C)(C)OC(=O)N1CCN(CCNc2ncc3ncnc(Nc4ccc(F)c(Cl)c4)c3n2)CC1 | < 9.00
Nc1cc(Cl)c(Nc2ncnc3cnc(N[C@H]4CC[C@H](O)CC4)nc23)cc1Cl | < 8.00
Fc1ccc(Nc2ncnc3cnc(N4CCC(C5CCNCC5)CC4)nc23)cc1Cl | < 9.00
CC(CN1CCCCC1)Nc1ncc2ncnc(Nc3ccc(F)c(Cl)c3)c2n1 (stereo not drawn) | < 9.00
O=CNC1CCN(c2ncc3ncnc(Nc4ccc(F)c(Cl)c4)c3n2)CC1 | < 8.00
NCC1CCC(CNc2ncc3ncnc(Nc4ccc(F)c(Cl)c4)c3n2)CC1 (stereo not drawn) | < 9.00
Nc1c(Cl)cc(Nc2ncnc3cnc(N[C@H]4CC[C@H](C(=O)N5CCCC5)CC4)nc23)cc1Cl | < 9.00
Fc1ccc(Nc2ncnc3cnc(N4CCC(N5CCCC5)CC4)nc23)cc1Cl | 8.00
Fc1ccc(Nc2ncnc3cnc(N4CCCCCC4)nc23)cc1Cl | < 9.00
COc1cccc(N2CCN(c3ncc4ncnc(Nc5ccc(F)c(Cl)c5)c4n3)CC2)c1 | < 7.70
Nc1c(Cl)cc(Nc2ncnc3cnc(N[C@H]4CC[C@H](C(=O)O)CC4)nc23)cc1Cl | < 9.00
CC1CC(c2ccc(O)cc2)CN1c1ncc2ncnc(Nc3ccc(F)c(Cl)c3)c2n1 (stereo not drawn) | < 9.00
OC1CCN(c2ncc3ncnc(Nc4ccc(F)c(Cl)c4)c3n2)CC1 | < 9.00
COc1ccccc1N1CCN(c2ncc3ncnc(Nc4ccc(F)c(Cl)c4)c3n2)CC1 | < 7.70
Fc1ccc(Nc2ncnc3cnc(NCC45CCN(CC4)CC5)nc23)cc1Cl | < 9.00
O[C@H]1CC[C@H](Nc2ncc3ncnc(Nc4cccc(Oc5ccccc5)c4)c3n2)CC1 | < 8.00
Fc1ccc(Nc2ncnc3cnc(NC4CCCN(Cc5ccccc5)CC4)nc23)cc1Cl (stereo not drawn) | < 9.00
Nc1ncc2ncnc(Nc3ccc(F)c(Cl)c3)c2n1 | < 9.00

SMILES | pIC50
Nc1c(Cl)cc(Nc2ncnc3cnc(N[C@H]4CC[C@H](C(=O)N5CCOCC5)CC4)nc23)cc1Cl | < 9.00
Fc1ccc(Nc2ncnc3cnc(N4CCC(N5CCOCC5)CC4)nc23)cc1Cl | < 7.70
CN1CCCN(c2ncc3ncnc(Nc4ccc(F)c(Cl)c4)c3n2)CC1 | < 8.00
CN1CCN(C2CCC(Nc3ncc4ncnc(Nc5ccc(F)c(Cl)c5)c4n3)CC2)CC1 (stereo not drawn) | < 9.00
Fc1ccc(Nc2ncnc3cnc(N4CCCNCC4)nc23)cc1Cl | < 8.00
Fc1ccc(Nc2ncnc3cnc(NC4CN5CCC4CC5)nc23)cc1Cl (stereo not drawn) | < 8.00
NCC1CCN(c2ncc3ncnc(Nc4ccc(F)c(Cl)c4)c3n2)CC1 | < 9.00
NCC1CCCN(c2ncc3ncnc(Nc4ccc(F)c(Cl)c4)c3n2)C1 (stereo not drawn) | < 9.00
CC(C)(C)OC(=O)N1CCC(Nc2ncc3ncnc(Nc4ccc(F)c(Cl)c4)c3n2)CC1 | < 8.00
CN1CCC(CNc2ncc3ncnc(Nc4ccc(F)c(Cl)c4)c3n2)CC1 | < 9.00
NCCCCCNc1ncc2ncnc(Nc3ccc(F)c(Cl)c3)c2n1 | < 9.00
NCCNc1ncc2ncnc(Nc3ccc(F)c(Cl)c3)c2n1 | < 8.00
CN1CCC(C2CCN(c3ncc4ncnc(Nc5ccc(F)c(Cl)c5)c4n3)CC2)CC1 | < 9.00
Nc1ccc(CNc2ncc3ncnc(Nc4ccc(F)c(Cl)c4)c3n2)cc1 | < 8.00
NCCCCNc1ncc2ncnc(Nc3ccc(F)c(Cl)c3)c2n1 | < 8.00
CC(C)(C)OC(=O)N1CCCC(Nc2ncc3ncnc(Nc4ccc(F)c(Cl)c4)c3n2)CC1 (stereo not drawn) | < 8.00
O=C(N1CCOCC1)N1CCN(CCNc2ncc3ncnc(Nc4ccc(F)c(Cl)c4)c3n2)CC1 | < 9.00
CN1CCC(N(C)c2ncc3ncnc(Nc4ccc(F)c(Cl)c4)c3n2)CC1 | 8.00
